Experimental data as given in patent US12478623B2 (INTRA-CELLULAR THERAPIES, INC., priority 2019, dated 2025).

What was measured:
[1] = system: Male Wistar rats; assay: Conditioned avoidance response (CAR) test, Example 1; type: in vivo, rat; conditions: for Suppression of CAR: 20 minutes; for Treatment effect in CAR: FIG. 2
[2] = system: patients with acute exacerbated schizophrenia; conditions: 60 mg P.O. once daily for up to 28 days, vs placebo; cited from earlier work
[3] = system: mTOR pathway, including protein kinase Akt and p70S6 kinase; conditions: cited from earlier work
[4] = system: schizophrenic patients; conditions: cited from earlier work
[5] = system: social defeat model; conditions: in vivo; cited from earlier work
[6] = system: pyramidal cells in rat mPFC slices; conditions: lumateperone alone; cited from earlier work
[7] = schizophrenia with co-morbid depression

Structure (SMILES) | Suppression of CAR ([1]; risperidone 0.4 mg/kg i.p., vs vehicle, FIG. 1) | Treatment effect in CAR ([1]; risperidone 0.4 mg/kg i.p., 90 minutes) | Suppression of CAR ([1]; lumateperone 7 mg/kg i.p. (saline), vs vehicle/saline, FIG. 3) | CAR, comparison between groups ([1]; lumateperone 7 mg/kg, 90 minutes, vs lumateperone 3 mg/kg/saline, FIG. 4) | Suppression of CAR ([1]; lumateperone tosylate 3 mg/kg i.p., vs vehicle, FIG. 1) | Suppression of CAR ([1]; lumateperone tosylate 10 mg/kg i.p., vs vehicle, FIG. 1) | Treatment effect in CAR ([1]; lumateperone tosylate 10 mg/kg i.p., 90 minutes) | Symptoms of emotional experience [2] | Phosphorylation of mTOR pathway proteins [3] | Depressive symptoms [4, 7] | Safety profile [4, 7] | Social functioning, positive and negative symptoms, cognition ([4]; schizophrenic patients, at a low striatal D2 receptor occupancy) | Effect in the social defeat model [5] | NMDA and AMPA receptor-induced currents [6]
Cc1nc2n(c(=O)c1CCN1CCC(c3noc4cc(F)ccc34)CC1)CCCC2 [risperidone] | significantly suppressed CAR compared to vehicle | not for the other doses or for risperidone | – | – | – | – | – | – | – | – | – | – | – | –
CN1CCN2c3c(cccc31)[C@@H]1CN(CCCC(=O)c3ccc(F)cc3)CC[C@@H]12 [lumateperone, 4-((6bR,10aS)-3-methyl-2,3,6b,9,10,10a-hexahydro-1H-pyrido[3′,4′: 4,5]pyrrolo[1,2,3-de]quinoxalin-8(7H)-yl)-1-(4-fluorophenyl)-1-butanone] | – | – | significantly suppressed CAR compared to vehicle/saline | significantly different than lumateperone (3 mg/kg)/saline | significantly suppressed CAR compared to vehicle | significantly suppressed CAR compared to vehicle | significant treatment effect | significant and unexpected improvement in symptoms of emotional experience compared to placebo | increases phosphorylation of key proteins in the mTOR pathway | improves the depressive symptoms | placebo-level safety profile and no metabolic changes or extra-pyramidal side effects | significantly improve social functioning, positive and negative symptoms, as well as impaired cognition | antidepressant-like effects | activates both NMDA and AMPA receptor-induced currents
